Laboratory results as given in PubChem BioAssay (NCI).
“And” between values parts separate entries of the source, which are not always exact repeats. Equal entries are not always repeated.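 Tested at 5 concentrations; 48 h exposure; 96-well plates; endpoints linearly interpolated, else capped at highest concentration. Here, GI50 denotes the concentration required for 50% inhibition of growth. The concentration for full growth arrest is given as TGI.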

Key:
Test in all cases: DTP human tumour cell line panel, 48 h
ACHN renal = test system: ACHN renal
SW-620 colon = test system: SW-620 colon
HS 578T breast = test system: HS 578T breast
SF-295 CNS = test system: SF-295 CNS
MDA-MB-435 = test system: MDA-MB-435
A498 renal = test system: A498 renal
NCI-H23 lung = test system: NCI-H23 lung
MCF7 breast = test system: MCF7 breast
MDA-MB-231 breast = test system: MDA-MB-231 breast
SK-MEL-2 melanoma = test system: SK-MEL-2 melanoma
PC-3 prostate = test system: PC-3 prostate
TK-10 renal = test system: TK-10 renal

Structure (SMILES)	TGI (ACHN renal) [µM]	TGI (SW-620 colon)	TGI (HS 578T breast) [µM]	TGI (SF-295 CNS) [µM]	TGI (MDA-MB-435) [µM]	TGI (A498 renal) [µM]	TGI (NCI-H23 lung) [µM]	TGI (MCF7 breast) [µM]	TGI (MDA-MB-231 breast) [µM]	TGI (SK-MEL-2 melanoma)	TGI (PC-3 prostate) [µM]	TGI (TK-10 renal) [µM]	GI50 (SW-620 colon) [µM]	GI50 (NCI-H23 lung)	GI50 (TK-10 renal) [µM]	GI50 (A498 renal)	GI50 (MCF7 breast) [µM]	GI50 (ACHN renal) [µM]	GI50 (SF-295 CNS)	GI50 (SK-MEL-2 melanoma) [µM]
CC(=O)OCC1OC(N2C(=O)CC(N)=Nc3ccccc32)C(OC(C)=O)C(OC(C)=O)C1OC(C)=O (stereo not given)	> 100	> 100 µM	> 100	> 100	> 100	> 100	> 100	> 100	> 100	> 100 µM	> 100	> 100	–	–	–	–	–	–	–	–
Nc1nccc2c1ncn2C1C=C(CO)C(O)C1O (stereo not given)	–	> 1000 µM	–	–	–	–	> 1000	–	–	99.1 µM	–	> 1000	0.775	269 µM	29.4	–	–	–	–	–
Cc1ccc(NC(=O)CC(=O)n2nc(-c3ccccc3)c(N=Nc3ccccc3C(=O)O)c2-c2ccccc2)cc1	> 100	> 100 µM	–	> 100	–	–	–	–	–	> 100 µM	–	> 100	–	–	–	–	–	–	–	–
O=C1/C(=C/c2ccc3c(c2)OCO3)Sc2scc(-c3ccc(O)c(O)c3)[n+]21	3.94	–	72.6	25.5	13.5	–	9.29	> 35.2	> 28.8	24.8 µM	16.2	3.71	–	–	–	–	–	–	–	–
Cc1cc(O)c2cc3c(O)c(O)ccc3cc2c1	5.71	> 28.9 µM	6.22	10.8	22.8	16.1	6	> 87	3.21	3.22 µM	19.3	33.7	–	–	–	–	–	–	–	–
O=CN(O)CC(=O)O.[Ni]	> 100	> 100 µM	> 100	> 100	> 100	> 100	> 100	> 100	> 100	–	> 100	–	–	–	–	–	–	–	–	–
OCCSCc1cc(Cl)cc(Cl)c1O	> 100	> 100 µM	> 100	> 100	> 100	> 100	> 100	> 100	> 100	–	> 100	> 100	–	–	–	–	–	–	–	–
NS(=O)(=O)c1ccc(N=Nc2ccc(O)c(O)c2)cc1	17	41.4 µM	67.3	> 100	32.2	> 100	51.8	> 100	38.8	34 µM	> 100	93	–	–	–	–	–	–	–	–
CC(=O)C1=C(C)N(c2ccc(C)cc2)C2(O)C=CC(=O)C3=C(O)c4ccccc4C(=O)C312 (stereo not given)	36.8	> 100 µM	> 100	43.3	–	30.8	52.5	> 100	70.2	30.3 µM	41.5	47.2	–	–	–	–	–	–	–	–
CC(C)(C)C(=O)CC(=O)C(F)(F)C(F)(F)C(F)(F)F.CC(C)(C)C(=O)CC(=O)C(F)(F)C(F)(F)C(F)(F)F.CC(C)(C)C(=O)CC(=O)C(F)(F)C(F)(F)C(F)(F)F.[Er]	> 100	> 100 µM	> 100	> 100	> 100	> 100	> 100	> 100	> 100	–	> 100	> 100	–	–	–	> 100 µM	> 100	–	–	–
Cc1ccc([S+](c2ccccc2)c2cc(C)ccc2C)cc1 (stereo not given)	> 100	> 100 µM	–	69.1	–	32.1	–	–	–	–	–	–	–	–	–	–	–	–	–	–
O=CNNC(=O)CSc1nc2ccc(I)cc2c(=O)n1Cc1ccccc1	> 100	> 100 µM	87.8	> 100	> 100	> 100	89.6	> 100	81.8	44.4 µM	> 100	> 100	–	–	–	–	–	–	–	–
O=C1CC(NC2CC(=O)c3c(Br)sc(Br)c32)c2c(Br)sc(Br)c21 (stereo not given)	5.22	4.95 µM	33.2	27.8	11.2	32.6	28.3	8.44	10.3	14.5 µM	7.52	6.47	–	–	–	–	–	–	–	–
COC[C@@H]1Cc2cc(OC)c3c(c2[C@H](c2ccc(OC)c(OC)c2)[C@H]1COC)OCO3	> 100	> 100 µM	–	> 100	–	> 100	> 100	–	–	> 100 µM	–	> 100	–	–	–	–	–	–	–	–
O=NN(CCCl)C(=O)Nc1ccc(Cl)c(Cl)c1	–	> 100 µM	–	> 100	–	> 100	> 100	> 100	–	> 100 µM	–	–	–	–	–	–	–	–	–	–
O=S(=O)(c1ccccc1)[C@@H]1[C@H]2C=C[C@](CS)(O2)[C@H]1S(=O)(=O)c1ccccc1	> 100	30.6 µM	> 100	> 100	> 100	> 100	> 100	> 100	> 100	–	> 100	> 100	–	–	–	–	–	–	–	–
COc1cc(CCC(=O)O)c2cc3ccccc3cc2c1O	32.2	51.5 µM	> 100	37.6	34.4	99.5	51.6	34.4	41.4	36.6 µM	47.6	75.1	–	–	–	–	–	–	–	–
O=[N+]([O-])c1ccc(/C=N/n2c(CCc3n[nH]c(=S)n3/N=C/c3ccc([N+](=O)[O-])o3)n[nH]c2=S)o1	63.4	32.7 µM	62.2	> 100	35.3	> 100	34.7	39.7	52.4	42.9 µM	> 100	> 100	–	–	–	–	–	–	–	–
O=C1CSc2sc(=S)sc2S1	–	> 100 µM	–	> 100	–	> 78.6	> 100	> 100	–	> 100 µM	–	–	–	–	–	–	–	–	–	–
Oc1ccc(NCc2cc(O)ccc2O)cc1	29.6	> 100 µM	> 100	38.3	32	60.1	38.7	34.2	29.2	36.3 µM	28.4	30.4	–	–	–	–	–	–	–	–
COc1cccc2c1C(=O)c1c(O)c3c(c(O)c1C2=O)C[C@@](O)(C(C)=O)C[C@@H]3OC1CC(N(C)C)C(O)C(C)O1 (stereo not given in full)	–	0.622 µM and 1.56 µM	0.0011	–	0.00234	–	–	0.405	0.005	0.308 µM and 0.0915 µM	0.00144	1.34	0.00484	0.0394 µM and < 0.0142 µM	0.122	0.139 µM and 0.0466 µM	–	0.00902	0.0188 µM and 0.0254 µM	< 0.0113
O=C1NC2(NC(=O)C1=O)Nc1ccccc1S2	> 76.1	> 46.1 µM	–	> 100	–	> 100	> 100	–	–	> 100 µM	–	> 100	–	–	–	–	–	–	–	–
CC(C)(C)OC(=O)N1CCCC1C(=O)NCCNc1ccc(NCCNC(=O)C2CCCN2C(=O)OC(C)(C)C)c2c1C(=O)c1ccccc1C2=O (stereo not given)	31.6	29.8 µM	69.5	32	39.8	–	29.4	34.2	25.9	38.5 µM	26.4	49.1	–	–	–	–	–	–	–	–
